One test addresses T1, Intestinal Sucrase (Rattus norvegicus, UniProt P23739).
T1 construct: Sucrase was isolated from rat intestine as a crude homogenate; from tissue; host or cells: rat intestine
The test is described as follows: Intestinal sucrase inhibition (glucose liberated from sucrose). It is filed as biochemical. The following applies: crude homogenate from rat intestine; 1 hour preincubation with test compound; sucrose substrate, pH 5.9; read-out: IC₅₀ Intestinal Sucrase. The method, then: Sucrase was isolated from rat intestine as a crude homogenate using the salt extraction procedure of Kolinska [Biochem. Biophys. Acta, 284, 235 (1984)]. Incubation mixtures contained 100 µl of enzyme preparation plus test compound and were incubated for 1 hour before the addition of 6.6 µmole sucrose in 100 µl 0.1 M sodium maleate, pH 5.9. The mixtures were incubated an additional 30 minutes and then heat inactivated at 80-100°C for 3 minutes. Denatured protein was removed by centrifugation. Glucose liberated was determined by glucose dehydrogenase reagents (Seragen Diagnostics).

The next test addresses T2, Lysosomal α-Glucosidase (Rattus norvegicus, UniProt Q6P7A9).
T2 construct: Lysosomal α-glucosidase was isolated and partially purified from rat liver; from tissue; host or cells: rat liver
Description: Lysosomal α-glucosidase inhibition (p-nitrophenyl-α-D-glucoside hydrolysis). In kind it is biochemical. To be noted: partially purified from rat liver, 1 hour preincubation at 37°C, pH 4.2, read-out: IC₅₀ Lysosomal α-Glucosidase. The method, then: Lysosomal α-glucosidase was isolated and partially purified from rat liver by the method of Dissous [Anal. Biochem., 116, 35 (1981)] through the ammonium sulfate fractionation steps. Enzyme was incubated with test compound for 1 hour at 37°C prior to the addition of p-nitrophenyl-α-D-glucoside in a final volume of 0.6 ml of 0.1 M sodium acetate, 25 mM potassium chloride, pH 4.2. Mixtures were incubated for an additional 30 minutes at 37°C and then heat inactivated at 90°C. Denatured protein was removed by centrifugation. One ml of 0.1 M sodium carbonate was added to the supernatant fraction and liberated nitrophenol determined by its absorption at 410 nm.

The subject of a further test is serum glucose elevation. The test is described as follows: Sucrose load test: inhibition of serum glucose elevation. The following applies: for minimal effective dose: Mus musculus, 0.5 h, oral, test compound plus sucrose at 2.0 g/kg, serum glucose at 30 minutes post sucrose, amount needed to significantly inhibit serum glucose elevation; for Duration Of Action: oral test compound 1, 2 or 3 hours before sucrose at 2.0 g/kg, serum glucose 30 minutes post sucrose. In kind it is in vivo, ICR Swiss mice. The method, then:
The compounds of the present invention were further tested in a sucrose load test to determine their ability to inhibit serum glucose elevation. The procedure can be summarized as follows.
ICR Swiss mice, fasted for 18-20 hours, were orally dosed with test compound plus sucrose at 2.0 g/kg. At 30 minutes post sucrose, the animals were sacrificed and their serum glucose concentrations were determined. […] To test duration of action, mice were orally dosed twice. The initial dose was test compound or vehicle. After 1, 2, or 3 hours, the mice were dosed with sucrose at 2.0 g/kg. After an additional 30 minutes post sucrose, the animals were sacrificed and their serum glucose concentrations were determined. Test compound activity was indicated by a significant difference of serum glucose concentration from the corresponding control. The activity observed can be summarized as follows: TABLE II

A value given as a limit tells only on which side of the number the result lay.

T2 sequence (Q6P7A9 70-953): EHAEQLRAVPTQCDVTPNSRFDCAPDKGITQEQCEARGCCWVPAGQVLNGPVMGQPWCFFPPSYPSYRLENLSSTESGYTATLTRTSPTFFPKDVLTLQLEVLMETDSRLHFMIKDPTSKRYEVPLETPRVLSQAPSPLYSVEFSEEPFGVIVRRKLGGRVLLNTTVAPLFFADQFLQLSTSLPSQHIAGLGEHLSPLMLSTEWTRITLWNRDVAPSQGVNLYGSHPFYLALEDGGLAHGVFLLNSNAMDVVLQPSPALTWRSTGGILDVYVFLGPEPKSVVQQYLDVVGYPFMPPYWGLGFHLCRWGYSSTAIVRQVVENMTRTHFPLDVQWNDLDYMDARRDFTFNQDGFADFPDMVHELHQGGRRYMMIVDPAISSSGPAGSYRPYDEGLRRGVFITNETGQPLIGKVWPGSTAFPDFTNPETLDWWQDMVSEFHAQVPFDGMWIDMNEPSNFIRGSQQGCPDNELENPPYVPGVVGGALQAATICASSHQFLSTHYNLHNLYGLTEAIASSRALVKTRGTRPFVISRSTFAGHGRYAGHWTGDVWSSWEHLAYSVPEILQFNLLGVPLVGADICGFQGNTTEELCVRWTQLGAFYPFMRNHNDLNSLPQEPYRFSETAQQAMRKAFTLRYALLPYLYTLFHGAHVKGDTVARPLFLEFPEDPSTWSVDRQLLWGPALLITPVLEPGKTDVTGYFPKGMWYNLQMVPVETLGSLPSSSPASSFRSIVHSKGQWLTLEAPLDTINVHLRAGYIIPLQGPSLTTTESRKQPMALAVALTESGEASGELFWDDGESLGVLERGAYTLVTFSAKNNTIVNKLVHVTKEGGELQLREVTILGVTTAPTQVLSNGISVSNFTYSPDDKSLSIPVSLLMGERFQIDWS
T1 sequence (P23739 whole entry): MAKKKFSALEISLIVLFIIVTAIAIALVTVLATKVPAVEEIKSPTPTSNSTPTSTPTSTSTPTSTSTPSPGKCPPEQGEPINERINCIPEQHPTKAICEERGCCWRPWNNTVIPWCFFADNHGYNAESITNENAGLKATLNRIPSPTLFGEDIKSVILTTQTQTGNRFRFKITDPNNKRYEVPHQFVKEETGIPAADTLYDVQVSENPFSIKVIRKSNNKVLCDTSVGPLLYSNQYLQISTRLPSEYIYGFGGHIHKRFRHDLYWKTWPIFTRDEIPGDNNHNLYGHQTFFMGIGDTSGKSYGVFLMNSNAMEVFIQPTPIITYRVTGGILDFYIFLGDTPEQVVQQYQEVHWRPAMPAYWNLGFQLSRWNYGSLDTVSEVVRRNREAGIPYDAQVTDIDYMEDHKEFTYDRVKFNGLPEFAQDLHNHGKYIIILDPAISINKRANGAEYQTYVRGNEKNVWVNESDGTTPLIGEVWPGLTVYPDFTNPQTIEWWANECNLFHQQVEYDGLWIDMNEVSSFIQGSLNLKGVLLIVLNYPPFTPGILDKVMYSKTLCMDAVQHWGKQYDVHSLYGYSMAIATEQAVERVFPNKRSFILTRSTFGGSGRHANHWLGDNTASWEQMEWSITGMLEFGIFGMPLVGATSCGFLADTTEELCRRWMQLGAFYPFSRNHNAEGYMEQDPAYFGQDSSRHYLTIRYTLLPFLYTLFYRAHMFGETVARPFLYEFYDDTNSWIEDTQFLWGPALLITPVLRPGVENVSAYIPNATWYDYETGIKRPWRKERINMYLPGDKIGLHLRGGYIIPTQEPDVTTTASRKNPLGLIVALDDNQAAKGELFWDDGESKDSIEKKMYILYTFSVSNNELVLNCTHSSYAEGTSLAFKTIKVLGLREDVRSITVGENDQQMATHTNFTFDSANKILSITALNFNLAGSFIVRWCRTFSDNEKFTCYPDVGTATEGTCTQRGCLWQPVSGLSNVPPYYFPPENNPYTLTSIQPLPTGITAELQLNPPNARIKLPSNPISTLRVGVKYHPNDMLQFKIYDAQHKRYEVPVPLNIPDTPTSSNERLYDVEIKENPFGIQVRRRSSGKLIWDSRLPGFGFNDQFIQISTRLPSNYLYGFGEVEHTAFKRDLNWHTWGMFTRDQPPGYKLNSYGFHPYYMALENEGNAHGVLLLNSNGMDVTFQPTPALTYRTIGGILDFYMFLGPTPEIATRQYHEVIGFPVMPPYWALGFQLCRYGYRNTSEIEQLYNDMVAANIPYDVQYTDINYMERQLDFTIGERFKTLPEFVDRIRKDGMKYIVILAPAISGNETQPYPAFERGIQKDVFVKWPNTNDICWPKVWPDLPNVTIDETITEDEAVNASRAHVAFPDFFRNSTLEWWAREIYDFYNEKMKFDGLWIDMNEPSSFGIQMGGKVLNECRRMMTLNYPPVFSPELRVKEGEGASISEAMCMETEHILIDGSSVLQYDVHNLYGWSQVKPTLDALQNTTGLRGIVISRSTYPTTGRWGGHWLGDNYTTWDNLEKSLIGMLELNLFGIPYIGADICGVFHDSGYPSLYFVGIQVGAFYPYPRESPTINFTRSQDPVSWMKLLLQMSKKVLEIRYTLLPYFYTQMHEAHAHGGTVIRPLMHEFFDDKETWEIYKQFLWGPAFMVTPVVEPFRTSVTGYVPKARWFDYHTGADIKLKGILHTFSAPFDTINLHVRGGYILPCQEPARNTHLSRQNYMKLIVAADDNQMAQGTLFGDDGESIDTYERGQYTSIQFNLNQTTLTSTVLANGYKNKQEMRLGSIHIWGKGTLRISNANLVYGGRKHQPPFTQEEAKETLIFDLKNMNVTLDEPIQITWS

Usually minimal effective dose stands for the smallest amount tested that counted as effective. As for `O=C(O[C@H]1[C@H](O)[C@H]2[C@@H](O)CCN2C[C@@H]1OC(=O)c1ccccc1)c1ccccc1` [6,7-Dibenzoate, [1S-(1α,6β,7α,8β,8aβ)]-octahydro-1,6,7,8-indolizinetetrol 6,7-dibenzoate], the IC50 at Intestinal Sucrase is 2 µM; at Lysosomal α-Glucosidase it was over 1000 µM. In the test with serum glucose elevation, the minimal effective dose stood at 20 mg/kg.

Take `O=C(O[C@H]1[C@H](O)[C@H]2[C@@H](O)CCN2C[C@@H]1OC(=O)c1ccc(F)cc1)c1ccc(F)cc1` [6,7-bis(4-Fluorobenzoate), [1S-(1α,6β,7α,8β,8aβ)]-octahydro-1,6,7,8-indolizinetetrol 6,7-bis(4-fluorobenzoate)]: the IC50 was 4 µM on Intestinal Sucrase and over 1000 µM on Lysosomal α-Glucosidase.

Take `CCCC(=O)O[C@H]1[C@H](O)[C@@H](OC(=O)CCC)CN2CC[C@H](O)[C@H]12` [6,8-Dibutyrate, [1S-(1α,6β,7α,8β,8aβ)]-octahydro-1,6,7,8-indolizinetetrol 6,8-dibutanoate]: the IC50 on Intestinal Sucrase is 0.2 µM; at Lysosomal α-Glucosidase, over 1000 µM.

On to `O=C(O[C@H]1CN2CC[C@H](O)[C@@H]2[C@@H](O)[C@@H]1O)c1ccc(F)cc1` [6-(4-Fluorobenzoate), [1S-(1α,6β,7α,8β,8aβ)]-octahydro-1,6,7,8-indolizinetetrol 6-(4-fluorobenzoate)], for which the IC50 at Intestinal Sucrase is 0.2 µM; on Lysosomal α-Glucosidase, 4 µM. Further, in the test on serum glucose elevation, the minimal effective dose came out at 5 mg/kg.

As to `COc1ccc(C(=O)O[C@H]2CN3CC[C@H](O)[C@@H]3[C@@H](O)[C@@H]2O)cc1` [6-(4-Methoxybenzoate), (1S-(1α,6β,7α,8β,8aβ)]-octahydro-1,6,7,8-indolizinetetrol 6-(4-methoxybenzoate)], the IC50 turned out to be 2 µM at Intestinal Sucrase and 1000 µM at Lysosomal α-Glucosidase.

On to `Cc1ccc(C(=O)O[C@H]2CN3CC[C@H](O)[C@@H]3[C@@H](O)[C@@H]2O)cc1` [6-(4-Methylbenzoate), [1S-(1α,6β,7α,8β,8aβ)]-octahydro-1,6,7,8-indolizinetetrol 6-(4-methylbenzoate)], for which the IC50 at Intestinal Sucrase amounted to 0.3 µM; on Lysosomal α-Glucosidase, 1000 µM.

On to `O=C(O[C@H]1CN2CC[C@H](O)[C@@H]2[C@@H](O)[C@@H]1O)c1ccccc1` [6-Benzoate, (1S-(1α,6β,7α,8β,8aβ)]-octahydro-1,6,7,8-indolizinetetrol 6-benzoate], for which the IC50 at Intestinal Sucrase was found to be 0.08 µM; at Lysosomal α-Glucosidase, 800 µM. Besides, the minimal effective dose in the test on serum glucose elevation worked out at 1 mg/kg. Further, in the test on serum glucose elevation, the “Duration Of Action” value was determined as 1 hour hours.

As for `O=C(O[C@H]1[C@H](O)[C@H]2[C@@H](O)CCN2C[C@@H]1O)c1ccc(Cl)cc1Cl` [7-(2,4-Dichlorobenzoate), [1S-(1α,6β,7α,8β,8aβ)]-octahydro-1,6,7,8-indolizinetetrol 7-(2,4-dichlorobenzoate)], the IC50 on Intestinal Sucrase came out at 0.4 µM; at Lysosomal α-Glucosidase it was 100 µM. In the test with serum glucose elevation, the minimal effective dose amounted to 20 mg/kg.

With `O=C(O[C@H]1[C@H](O)[C@H]2[C@@H](O)CCN2C[C@@H]1O)c1ccc(F)cc1` [7-(4-Fluorobenzoate), [1S-(1α,6β,7α,8β,8aβ)]-octahydro-1,6,7,8-indolizinetetrol 7-(4-fluorobenzoate)], the IC50 at Intestinal Sucrase is 0.4 µM. For the same compound, at Lysosomal α-Glucosidase, the IC50 is 6 µM. Further, in the test with serum glucose elevation, the minimal effective dose was 5 mg/kg and the “Duration Of Action” value was 2 h.

Take `O=C(O[C@H]1[C@H](O)[C@H]2[C@@H](O)CCN2C[C@@H]1O)c1ccccc1` [7-Benzoate, [1S-(1α,6β,7α,8β,8aβ)]-octahydro-1,6,7,8-indolizinetetrol 7-benzoate]: the results for the IC50 at Intestinal Sucrase and at Lysosomal α-Glucosidase were 2 µM and 200 µM, respectively. Moreover, the minimal effective dose in the test on serum glucose elevation is 5 mg/kg.

For the compound `OC[C@H]1O[C@H](O[C@H]2[C@H](O)[C@@H](O)CN3CC[C@H](O)[C@H]23)[C@H](O)[C@@H](O)[C@@H]1O` [8-α-D-Glucopyranoside, 8-O-(α-D-glucopyranosyl)-[1S-(1α,6β,7α,8β,8aβ)]-octahydro-1,6,7,8-indolizinetetrol], at Intestinal Sucrase, the IC50 turned out to be 0.05 µM. For the same compound, at Lysosomal α-Glucosidase, the IC50 is 300 µM. In the test with serum glucose elevation, the minimal effective dose turned out to be 1 mg/kg and the “Duration Of Action” value is reported as “≧3 hours”.

(Values after EP0297534B1, “Castanospermine esters and glycosides” (MERRELL DOW PHARMACEUTICALS INC., priority 1987, dated 1989).)
